# Experimental data taken from PubChem BioAssay AID1963842 (Molecular Pharmacology Branch, DTP, NCI, 2024).
# “And” between values parts separate entries of the source, which are not always exact repeats. Equal values may be shown once.
# Test system: 677734-321-R-J1-PDC complex spheroid viability
# Test: Anticancer human tumor 677734-321-R-J1-PDC patient-derived soft tissue sarcoma cell line growth inhibition [POLQ]
# Settings: for viability, T/C: stronger effect = lower value
# Procedure: Multicellular complex tumor spheroid response to Polymerase (POL) inhibitors (novobiocin, ART-558, RP6685) in combination with a variety of drugs and investigational agents in selected tumor cell lines
# The POL inhibitors (novobiocin, ART-558, and RP6685) were evaluated both individually and in combination with standard of care and investigational anticancer small molecules within a complex spheroid model of solid tumors. . Complex spheroids include a stromal component modeled by human endothelial cells (HUVEC) and fibroblasts modeled by human mesenchymal stem cells (MSCs). The concentration ranges selected for each drug and investigational agent were based upon clinically achievable concentrations if the clinical Cmax of the agent was known.
# Compounds. The drugs and investigational agents: novobiocin (NSC847541), ART-558 (NSC835418), RP-6685 (NSC848927), peposertib (NSC802822), ceralasertib (NSC780249), elimusertib (NSC800525), camonsertib (NSC841442), AZD-1390 (NSC803789), olaparib (NSC753686), talazoparib (NSC767125), rucaparib (NSC756644), sotorasib (NSC818433), MRTX-1133 (NSC836407), SN-38 (NSC673596), topotecan (NSC609699), epotoside (NSC141540), doxorubicin (NSC123127), gemcitabine (NSC613327), 5-fluorouracil (NSC19893), paclitaxel (NSC125973), vemurafenib (NSC761431), MSA-2 (NSC828583), SN-011 (NSC837082), adavosertib (NSC754352), prexasertib (NSC758257), carboplatin (NSC241240) and oxaliplatin (NSC266046), were obtained from the National Cancer Institute (NCI) Developmental Therapeutics Program Chemical Repository (21). The FDA-approved anticancer drug set is available from the Developmental Therapeutics Program at https://dtp.cancer.gov/organization/dscb/obtaining/. […] The stock solutions were prepared in dimethyl sulfoxide (DMSO, Sigma-Aldrich, St. Louis, MO, cat. D2650), except for the platinum compounds which were prepared in saline (Quality Biological, Gaithersburg, MD, cat. 114-055-101), at 800-fold the tested concentration and stored at -70 degrees C prior to their use. All drugs and investigational agents were tested over a range starting from a high concentration at or near the clinical Cmax and decreasing in half-log increments. If the clinical Cmax for an agent had not been determined, the highest concentration tested was 10 microM, except for SN-38, which was tested at a high concentration of 1 microM.
# Cell Culture. All cells were maintained in an incubator at 37 degrees C and 5% CO2 with 95% humidity. The PDC lines were cultured according to standard operating procedures established by the NCI PDMR (https://pdmr.cancer.gov). Table 3 of the manuscript, lists the cell lines along with the number of the three cell types plated to form the mct-spheroids and media for tumor cell growth. After thawing, all PDC lines, except 997537-175-T-J1-PDC and 415267-285-R-J2-PDC, were cultured in Matrigel-coated flasks prepared with a working solution of 1X Ham's F-12 nutrient mix, without supplementation (Thermo Fisher Scientific, cat. 11765054), 100 U/mL penicillin-streptomycin (Thermo Fisher Scientific, cat. 15140122), and 2.5% Matrigel (Corning Inc., Corning, NY, cat. 354248) for the first three passages. The two PDC lines 997537-175-T-J1-PDC and 415267-285-R-J2-PDC were cultured on uncoated flasks. The 857933-349-R-J2-PDC line was cultured in 6C/Colon 1B media containing advanced DMEM/F-12 (Thermo Fisher Scientific, cat. 12634028), 10 mM HEPES (Thermo Fisher Scientific, cat. 15630080), 1X GlutaMAX supplement (Thermo Fisher Scientific, cat. 35050061), 0.1 mg/mL primocin (InvivoGen, San Diego, CA, cat. ant-pm-2), 10% defined fetal bovine serum, heat inactivated (HyClone Laboratories Inc., Logan, UT, cat. SH30070.03HI), 50% L-WRN conditioned media (ATCC, cat. CRL-3276), 1.25 mM N-Acetyl-L-cysteine (Sigma-Aldrich, cat. A9165), 10 mM nicotinamide (Sigma-Aldrich, cat. N0636), 1X B-27 supplement (Thermo Fisher Scientific, cat. 17504044), 1X N-2 supplement (Thermo Fisher Scientific, cat. […]
# 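Also: spheroids exposed to compounds for one week.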
# 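For viability, T/C in this document: 100% = vehicle DMSO treated spheroids.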
smiles,measurement,setting,value
Nc1ccn(C2OC(CO)C(O)C2(F)F)c(=O)n1 (centres undefined),"viability, T/C",compound 0.0316 µM,34.7% and 15.9% and 21.9%
same,"viability, T/C",compound 0.1 µM,14.8% and 10.8% and 14.6%
same,"viability, T/C",compound 0.316 µM,16.7% and 11.1% and 12.8%
same,"viability, T/C",compound 1 µM,14.4% and 10% and 14.7%
same,"viability, T/C",compound 3.16 µM,14.3% and 7.7% and 10.6%
same,"viability, T/C",compound 10 µM,12.5% and 6.81% and 8.93%
same,IC50,curve of compound,< 0.0316 µM
C=CC(=O)N1CCN(c2nc(=O)n(-c3c(C)ccnc3C(C)C)c3nc(-c4c(O)cccc4F)c(F)cc23)C(C)C1 (centres undefined) + Nc1ccc(C#CCN(C(=O)Cc2ncc(C(F)(F)F)cc2C(F)(F)F)c2ccc(F)cc2)nn1,IC50,"curve of first compound, second compound 0.0316 µM",> 10 µM
same,IC50,"curve of first compound, second compound 0.1 µM",> 10 µM
same,IC50,"curve of first compound, second compound 0.316 µM",> 10 µM
same,IC50,"curve of first compound, second compound 1 µM",> 10 µM
same,IC50,"curve of first compound, second compound 3.16 µM",> 10 µM
same,IC50,"curve of first compound, second compound 10 µM",9.87 µM
same,"viability, T/C","second compound 0.0316 µM, first compound 0.0316 µM",114%
same,"viability, T/C","second compound 0.0316 µM, first compound 0.1 µM",116%
same,"viability, T/C","second compound 0.0316 µM, first compound 0.316 µM",101%
same,"viability, T/C","second compound 0.0316 µM, first compound 1 µM",101%
same,"viability, T/C","second compound 0.0316 µM, first compound 3.16 µM",89.2%
same,"viability, T/C","second compound 0.0316 µM, first compound 10 µM",74.4%
same,"viability, T/C","second compound 0.1 µM, first compound 0.0316 µM",107%
same,"viability, T/C","second compound 0.1 µM, first compound 0.1 µM",104%
same,"viability, T/C","second compound 0.1 µM, first compound 0.316 µM",93.7%
same,"viability, T/C","second compound 0.1 µM, first compound 1 µM",118%
same,"viability, T/C","second compound 0.1 µM, first compound 3.16 µM",82.7%
same,"viability, T/C","second compound 0.1 µM, first compound 10 µM",63.5%
same,"viability, T/C","second compound 0.316 µM, first compound 0.0316 µM",94.4%
same,"viability, T/C","second compound 0.316 µM, first compound 0.1 µM",94.9%
same,"viability, T/C","second compound 0.316 µM, first compound 0.316 µM",101%
same,"viability, T/C","second compound 0.316 µM, first compound 1 µM",109%
same,"viability, T/C","second compound 0.316 µM, first compound 3.16 µM",86.9%
same,"viability, T/C","second compound 0.316 µM, first compound 10 µM",69.4%
same,"viability, T/C","second compound 1 µM, first compound 0.0316 µM",112%
same,"viability, T/C","second compound 1 µM, first compound 0.1 µM",96.6%
same,"viability, T/C","second compound 1 µM, first compound 0.316 µM",92.4%
same,"viability, T/C","second compound 1 µM, first compound 1 µM",103%
same,"viability, T/C","second compound 1 µM, first compound 3.16 µM",104%
same,"viability, T/C","second compound 1 µM, first compound 10 µM",52.4%
same,"viability, T/C","second compound 3.16 µM, first compound 0.0316 µM",107%
same,"viability, T/C","second compound 3.16 µM, first compound 0.1 µM",106%
same,"viability, T/C","second compound 3.16 µM, first compound 0.316 µM",111%
same,"viability, T/C","second compound 3.16 µM, first compound 1 µM",102%
same,"viability, T/C","second compound 3.16 µM, first compound 3.16 µM",103%
same,"viability, T/C","second compound 3.16 µM, first compound 10 µM",56.6%
same,"viability, T/C","second compound 10 µM, first compound 0.0316 µM",136%
same,"viability, T/C","second compound 10 µM, first compound 0.1 µM",99.3%
same,"viability, T/C","second compound 10 µM, first compound 0.316 µM",107%
same,"viability, T/C","second compound 10 µM, first compound 1 µM",111%
same,"viability, T/C","second compound 10 µM, first compound 3.16 µM",85.4%
same,"viability, T/C","second compound 10 µM, first compound 10 µM",48.7%
